Data set [1] has as its system PBMC. Kind of data set: cells. The conditions noted are these: Homo sapiens.
Description: Inhibition of LPS-induced TNFalpha production in human PBMC preincubated for 30 mins measured after 3 hrs of LPS stimulation
A short description of data set [2]: Thermodynamic solubility of the compound at pH 6.8. Format: physicochemical. The conditions noted are these: buffer, read-out: Therm_solubility.
Data set [3] has as its system Plasma. Kind of data set: Plasma concentration in OF1 mouse at 100 mg/kg, po. The conditions noted are these: in vivo. Further details: dose 100 mg/kg, route oral. Format: ADME, organism-based.
Data set [4] is filed under the species Mus musculus. Kind of data set: animal or person. The conditions noted are these: OF1, po, 1 h, read-out: INH.
Description: Inhibition of LPS-induced TNFalpha production in OF1 mouse at 100 mg/kg, po after 1 hr by ELISA
For data set [5], the target named is T1, MAP kinase-activated protein kinase 2 (Homo sapiens, UniProt P49137).
T1 sequence (P49137 whole entry): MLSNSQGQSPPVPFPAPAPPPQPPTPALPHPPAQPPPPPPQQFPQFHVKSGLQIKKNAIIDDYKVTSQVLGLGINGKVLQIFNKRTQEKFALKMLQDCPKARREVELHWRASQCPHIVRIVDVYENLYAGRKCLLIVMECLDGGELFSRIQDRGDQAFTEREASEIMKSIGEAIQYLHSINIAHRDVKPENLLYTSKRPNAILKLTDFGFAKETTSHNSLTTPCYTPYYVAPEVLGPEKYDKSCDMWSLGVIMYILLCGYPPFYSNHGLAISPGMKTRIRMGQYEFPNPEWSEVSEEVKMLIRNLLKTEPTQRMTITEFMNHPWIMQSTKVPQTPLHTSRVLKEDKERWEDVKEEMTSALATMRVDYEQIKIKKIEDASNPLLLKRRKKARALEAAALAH
Data set [6] concerns the target T1, MAP kinase-activated protein kinase 2. This is another data set of the same source.
Description: Inhibition of MK2 mediated anisomycin-stimulated hsp27 phosphorylation in human THP-1 cells by fluorometric analysis

In brackets after ≈: the same amount, converted by molar mass.

Regarding `COCCCOc1cncc(-c2cc3c(cn2)CCc2c-3[nH]c3c2C(=O)NCC32CN(C)C2)c1`, it took 0.7 µM to reach half-maximal inhibition in data set [1] (IC50).

For `O=C1NC2(CC2)Cc2[nH]c3c(c21)CCc1cnc(-c2ccccc2F)cc1-3`, in data set [2], the solubility thermodynamic worked out at 10 µM (≈ 3.59 µg/mL). In addition, the IC50 in data set [1] was determined as 0.9 µM.

For `CN1CC2(CNC(=O)c3c4c(n(C)c32)-c2cc(-c3ccccc3F)ncc2CC4)C1`, the solubility thermodynamic in data set [2] was 41 µM (≈ 16.5 µg/mL). In data set [1], this molecule yielded an IC50 of 1.1 µM.

As for `COc1ccc(-c2ncc3c(n2)-c2[nH]c4c(c2CC3)C(=O)NCC4)cc1`, in data set [2], the solubility thermodynamic is less than 5 µM. This molecule also displayed an IC50 in data set [1] of 0.9 µM.

For `O=C1NCC2(CN(CCF)C2)c2[nH]c3c(c21)CCc1cnc(-c2ccccc2F)cc1-3`, in data set [1], the 50% inhibitory concentration (IC50) is 1.5 µM. This counts as single-digit micromolar.

With `COc1ccc(-c2ncc3c(n2)-c2[nH]c4c(c2CC3)C(=O)NCC42CN(C)C2)cc1`, the solubility thermodynamic in data set [2] turned out to be 43 µM (≈ 17.3 µg/mL). The molecule further showed an IC50 in data set [1] of 0.1 µM.

As for `CCN1CC2(CNC(=O)c3c2[nH]c2c3CCc3cnc(-c4ccccc4F)cc3-2)C1`, in data set [2], the solubility thermodynamic was found to be 950 µM (≈ 382 µg/mL). This molecule returned an IC50 in data set [1] of 0.7 µM.

As for `CN1CC2(CNC(=O)c3c2[nH]c2c3CCc3cnc(-c4ccccc4F)nc3-2)C1`, the solubility thermodynamic in data set [2] was 373 µM (≈ 145 µg/mL). The molecule further had an IC50 in data set [1] of 1.6 µM.

Regarding `O=C1NC2(CC2)Cc2[nH]c3c(c21)CCc1cnc(-c2cccc(F)c2)cc1-3`, the solubility thermodynamic in data set [2] came to 5 µM (≈ 1.8 µg/mL). This molecule returned a concentration in data set [3] of 15 µM. In data set [1], this molecule registered an IC50 of 0.8 µM. Also, the inhibition in vivo at 100 mg/kg in data set [4] amounted to 55%.

In the case of `COc1ccc(-c2cc3c(cn2)CCc2c-3[nH]c3c2C(=O)NCC32CC2)cc1`, the solubility thermodynamic in data set [2] is less than 4 µM. Moreover, the concentration in data set [3] is 0.6 µM. Further, in data set [1], 1.7 µM corresponded to half-maximal inhibition (IC50). The inhibition in vivo at 100 mg/kg in data set [4] came to 16%.

As to `O=C1NCC2(CNC2)c2[nH]c3c(c21)CCc1cnc(-c2ccccc2F)cc1-3`, in data set [2], the solubility thermodynamic is 337 µM (≈ 126 µg/mL). The same molecule showed a concentration for half-maximal inhibition (IC50) in data set [1] of 0.1 µM.

As for `CN1CC2(CNC(=O)c3c2[nH]c2c3CCc3cnc(-c4cccc(F)c4)nc3-2)C1`, in data set [1], the concentration for half-maximal inhibition (IC50) came to 0.5 µM.

On to `COc1ccc(-c2ncc3c(n2)-c2[nH]c4c(c2CC3)C(=O)NC2(CC2)C4)cc1`, for which the solubility thermodynamic in data set [2] is less than 4 µM.

For `O=C1NCC2(CNC2)c2oc3c(c21)CCc1cnc(-c2cccc(F)c2)cc1-3`, in data set [2], the solubility thermodynamic was determined as 51 µM (≈ 19.1 µg/mL). Moreover, in data set [1], the IC50 turned out to be 2.5 µM.

Take `CN1CC2(CNC(=O)c3c2[nH]c2c3CCc3cnc(-c4ccc(OCCN5CCOCC5)cc4)nc3-2)C1`: in data set [1], the IC50 was 0.1 µM. This counts as sub-micromolar.

As for `O=C1NC2(CC2)Cc2[nH]c3c(c21)CCc1cnc(-c2ccc(OCCN4CCOCC4)cc2)nc1-3`, the solubility thermodynamic in data set [2] was less than 4 µM. The molecule further had an IC50 in data set [1] of 0.3 µM.

On to `O=C1NCCc2[nH]c3c(c21)CCc1cnc(-c2ccccc2F)cc1-3`, for which the solubility thermodynamic in data set [2] is 11 µM (≈ 3.67 µg/mL). In addition, the IC50 in data set [1] amounted to 1.5 µM.

On to `COc1ccc(-c2cc3c(cn2)CCc2c-3[nH]c3c2C(=O)NCC32CN(C)C2)cc1`, for which, in data set [2], the solubility thermodynamic is 40 µM (≈ 16 µg/mL). For the same molecule, in data set [3], the concentration came to 0.1 µM. It took 0.06 µM to reach half-maximal inhibition in data set [1] (IC50). In addition, in data set [4], the inhibition in vivo at 100 mg/kg stood at 0%.

In the case of `CC(=O)N1CC2(CNC(=O)c3c2[nH]c2c3CCc3cnc(-c4ccccc4F)cc3-2)C1`, in data set [2], the solubility thermodynamic was found to be 24 µM (≈ 9.99 µg/mL). In data set [1], it took 6.5 µM to reach half-maximal inhibition (IC50).

In turn, `CN1CC2(CNC(=O)c3c2[nH]c2c3CCc3cnc(-c4ccc(OCCN5CCOCC5)cc4)cc3-2)C1` registered an IC50 in data set [1] of 0.6 µM. This lies in the sub-micromolar range.

Turning to `CN1CC2(CNC(=O)c3c2[nH]c2c3CCc3cnc(-c4ccccc4F)cc3-2)C1`, the solubility thermodynamic in data set [2] was more than 1000 µM. The concentration in data set [3] turned out to be 6 µM. Further, inhibition in data set [1] was half-maximal at 0.1 µM (IC50). Besides, the inhibition in vivo at 100 mg/kg in data set [4] was 90%.

For `COc1ccc(-c2cc3c(cn2)CCc2c-3[nH]c3c2C(=O)NC2(C3)CN(C)C2)cc1`, in data set [2], the solubility thermodynamic is less than 4 µM. The molecule also yielded a half-inhibitory concentration (IC50) in data set [1] of 1.1 µM.

Regarding `COc1ccc(-c2cc3c(cn2)CCc2c-3[nH]c3c2C(=O)NC2(CC2)C3)cc1`, in data set [2], the solubility thermodynamic is less than 4 µM. Further, the concentration in data set [3] was found to be 25 µM. In addition, in data set [1], the half-maximal inhibitory concentration (IC50) was determined as 0.2 µM. The inhibition in vivo at 100 mg/kg in data set [4] was 81%.

As for `O=C1NC2(CC2)Cc2[nH]c3c(c21)CCc1cnc(-c2ccc(F)nc2)nc1-3`, the solubility thermodynamic in data set [2] was less than 4 µM. For the same molecule, the IC50 in data set [1] came to 0.7 µM.

`COCCOc1cncc(-c2ncc3c(n2)-c2[nH]c4c(c2CC3)C(=O)NCC42CN(C)C2)c1` registered an IC50 in data set [1] of 1.5 µM.

`CN1CC2(CNC(=O)c3c2[nH]c2c3Cc3cnc(-c4ccccc4F)cc3-2)C1`: in data set [2], the solubility thermodynamic came to 69 µM (≈ 25.8 µg/mL). Besides, the concentration for half-maximal inhibition (IC50) in data set [1] was more than 10 µM.

Molecule `O=C1NCC2(CNC2)c2[nH]c3c(c21)CCc1cnc(-c2cccc(F)c2)cc1-3` returned a 50% inhibitory concentration (IC50) in data set [1] of 0.2 µM.

On to `COCCOc1cncc(-c2cc3c(cn2)CCc2c-3[nH]c3c2C(=O)NCC3)c1`, for which the solubility thermodynamic in data set [2] turned out to be 8 µM (≈ 3.12 µg/mL). The molecule also had an IC50 in data set [1] of 0.4 µM.

`O=C1NCCc2[nH]c(-c3ccnc(-c4ccccc4F)c3)cc21`: the solubility thermodynamic in data set [2] was determined as 337 µM (≈ 104 µg/mL). For the same molecule, the IC50 in data set [1] was more than 10 µM.

Regarding `O=C1NCCc2[nH]c3c(c21)CCc1cnc(-c2cccc(F)c2)cc1-3`, the solubility thermodynamic in data set [2] was less than 4 µM. The molecule further registered an IC50 in data set [1] of 0.5 µM.

With `CN1CC2(CNC(=O)c3c2[nH]c2c3CCc3cnc(-c4ccc(F)nc4)nc3-2)C1`, the solubility thermodynamic in data set [2] was 173 µM (≈ 67.5 µg/mL). The same molecule had an IC50 in data set [1] of 0.7 µM.

Regarding `CN1CC2(CNC(=O)c3c2[nH]c2c3CCc3cnc(-c4ccc(F)nc4)cc3-2)C1`, in data set [2], the solubility thermodynamic was determined as 47 µM (≈ 18.3 µg/mL). This molecule also returned a concentration in data set [3] of 0.6 µM. The molecule also gave an IC50 in data set [1] of 0.1 µM. Further, in data set [4], the inhibition in vivo at 100 mg/kg turned out to be 26%.

As for `O=C1NC2(CC2)Cc2[nH]c3c(c21)CCc1cnc(-c2ccc(OCCN4CCOCC4)cc2)cc1-3`, in data set [2], the solubility thermodynamic was less than 4 µM. Besides, the IC50 in data set [1] was determined as 0.2 µM.

Take `O=C1NCC2(CC2)c2[nH]c3c(c21)CCc1cnc(-c2cccc(F)c2)cc1-3`: the solubility thermodynamic in data set [2] was less than 4 µM. Also, the IC50 in data set [1] was 0.9 µM.

Take `COCCOc1cncc(-c2cc3c(ccc4c5c([nH]c43)CCNC5=O)cn2)c1`: in data set [2], the solubility thermodynamic is less than 4 µM. The results for the 50% inhibitory concentration (IC50) in data set [5], in data set [6] and in data set [1] were 0.01 µM, 1.5 µM and 0.3 µM, respectively.

Consider `COc1ccc(-c2cc3c(cn2)CCc2c-3[nH]c3c2C(=O)NCC3)cc1`, for which the solubility thermodynamic in data set [2] is less than 4 µM. Moreover, in data set [1], the IC50 amounted to 0.1 µM.

Take `COc1ccc(-c2ncc3c(n2)-c2[nH]c4c(c2CC3)C(=O)NCC42CC2)cc1`: the solubility thermodynamic in data set [2] is less than 4 µM. For the same molecule, the midpoint of inhibition in data set [1], the IC50, lay at 0.4 µM.

In the case of `Cn1c2c(c3c1C1(CNC1)CNC3=O)CCc1cnc(-c3ccccc3F)cc1-2`, the solubility thermodynamic in data set [2] came to 54 µM (≈ 21 µg/mL). Further, in data set [1], the IC50 stood at 1.8 µM.

With `O=C1NC2(CC2)Cc2[nH]c3c(c21)CCc1cnc(-c2ccccc2F)nc1-3`, the solubility thermodynamic in data set [2] came out at 8 µM (≈ 2.88 µg/mL). In addition, the midpoint of inhibition in data set [1], the IC50, lay at 2.3 µM.

Take `COCCOc1cncc(-c2cc3c(cn2)CCCc2c-3[nH]c3c2C(=O)NCC3)c1`: the solubility thermodynamic in data set [2] worked out at 21 µM (≈ 8.49 µg/mL). Besides, in data set [1], the IC50 was 1.1 µM.

On to `CN1CCC2(CC1)CNC(=O)c1c2[nH]c2c1CCc1cnc(-c3ccccc3F)cc1-2`, for which the solubility thermodynamic in data set [2] was more than 1000 µM. Besides, in data set [1], it took 0.2 µM to reach half-maximal inhibition (IC50).

Regarding `O=C1NCC2(CC2)c2[nH]c3c(c21)CCc1cnc(-c2ccc(F)nc2)cc1-3`, the solubility thermodynamic in data set [2] is less than 4 µM. The concentration in data set [3] worked out at 1.9 µM. This molecule also showed an IC50 in data set [1] of 0.7 µM. Also, the inhibition in vivo at 100 mg/kg in data set [4] is 30%.

Take `COc1ccc(-c2cc3c(cn2)CCc2c-3[nH]c3c2C(=O)NC2(CNC2)C3)cc1`: the solubility thermodynamic in data set [2] worked out at 32 µM (≈ 12.4 µg/mL). The midpoint of inhibition in data set [1], the IC50, lay at 1.3 µM.

On to `CN1CC2(CNC(=O)c3c2[nH]c2c3CCc3cnc(-c4cccc(F)c4)cc3-2)C1`, for which the solubility thermodynamic in data set [2] was 10 µM (≈ 3.88 µg/mL). This molecule also registered a concentration in data set [3] of 1 µM. Further, it took 0.2 µM to reach half-maximal inhibition in data set [1] (IC50). Besides, in data set [4], the inhibition in vivo at 100 mg/kg came out at 0%.
